Results as given in ChEMBL document CHEMBL1268992, “Kojyl thioether derivatives having both tyrosinase inhibitory and anti-inflammatory properties” (Bioorg Med Chem Lett, 2010).

Tests used:
Tyrosinase = molecular target: T1, Tyrosinase (Agaricus bisporus, UniProt O42713)
T1 sequence (O42713 whole entry): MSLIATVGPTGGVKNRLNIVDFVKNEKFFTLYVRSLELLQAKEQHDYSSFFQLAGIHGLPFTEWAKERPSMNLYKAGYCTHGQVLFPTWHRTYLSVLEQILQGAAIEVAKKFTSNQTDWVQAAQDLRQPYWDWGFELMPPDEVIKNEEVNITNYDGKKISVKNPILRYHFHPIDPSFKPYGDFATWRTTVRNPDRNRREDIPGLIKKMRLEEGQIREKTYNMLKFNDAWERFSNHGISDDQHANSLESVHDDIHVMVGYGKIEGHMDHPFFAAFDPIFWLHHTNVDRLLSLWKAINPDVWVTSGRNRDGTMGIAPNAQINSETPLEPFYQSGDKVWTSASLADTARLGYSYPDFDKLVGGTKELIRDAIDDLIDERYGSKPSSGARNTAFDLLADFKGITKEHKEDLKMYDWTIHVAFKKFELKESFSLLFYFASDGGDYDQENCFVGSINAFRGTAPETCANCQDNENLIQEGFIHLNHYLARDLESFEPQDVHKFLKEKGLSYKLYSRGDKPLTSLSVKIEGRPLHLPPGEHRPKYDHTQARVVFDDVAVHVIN
Description: Inhibition of mushroom tyrosinase after 20 mins by microplate reader analysis

RAW264.7 [1] = experiment: cells; conditions: Mus musculus
Description: Antiinflammatory activity in mouse RAW264.7 cells assessed as inhibition of LPS-induced nitric oxide production treated for 30 mins before LPS challenge measured after 24 hrs by Griess reagent method

RAW264.7 [2] = experiment: cells; conditions: Mus musculus, RAW264.7, 24 h
Description: Cytotoxicity against mouse RAW264.7 cells after 24 hrs by MTT assay

| SMILES | IC50 (Tyrosinase) | IC50 (RAW264.7 [1]) | IC50 (RAW264.7 [2]) |
| --- | --- | --- | --- |
| CCSCc1cc(=O)c(O)co1 | 2.6 µM | > 100 µM | > 100 µM |
| CCCSCc1cc(=O)c(O)co1 | 1.93 µM | > 100 µM | > 100 µM |
| CCCCCSCc1cc(=O)c(O)co1 | 0.097 µM | 62 µM | > 100 µM |
| CCCCCCCSCc1cc(=O)c(O)co1 | 2.65 µM | > 100 µM | 98.3 µM |
| CCCCCCCCSCc1cc(=O)c(O)co1 | 46.2 µM | > 100 µM | > 100 µM |
| O=c1cc(CSC2CCCCC2)occ1O | 0.087 µM | 56.9 µM | > 100 µM |
| CCCCC[S+]([O-])Cc1cc(=O)c(O)co1 (configuration not stated) | 79.9 µM | > 100 µM | > 100 µM |
| CCCCCS(=O)(=O)Cc1cc(=O)c(O)co1 | 76.6 µM | > 100 µM | > 100 µM |
| O=c1cc(CS(=O)(=O)C2CCCCC2)occ1O | 69 µM | > 100 µM | > 100 µM |

The remaining molecules from weak to strong by IC50 (Tyrosinase), led by results:

| IC50 (Tyrosinase) | IC50 (RAW264.7 [1]) | IC50 (RAW264.7 [2]) | SMILES |
| --- | --- | --- | --- |
| 79 µM | > 100 µM | > 100 µM | O=c1cc(C[S+]([O-])C2CCCCC2)occ1O (configuration not stated) |
| 73.8 µM | > 100 µM | > 100 µM | CCCCCC[S+]([O-])Cc1cc(=O)c(O)co1 (configuration not stated) |
| 49.1 µM | > 100 µM | > 100 µM | CCCCCCS(=O)(=O)Cc1cc(=O)c(O)co1 |
| 1.48 µM | > 100 µM | > 100 µM | CCCCSCc1cc(=O)c(O)co1 |
| 0.19 µM | 25.8 µM | > 100 µM | CCCCCCSCc1cc(=O)c(O)co1 |
